Data from patent publication US20240270809A1, “ORAL GLP RECEPTOR AGONISTS” (priority 2020, published 2024).
Positions of bridges follow the written chain, without caps; N, C: chain ends. Non-standard residues stand in square brackets, D forms with d. Residues, ends and D or L forms follow the SMILES beside them. *: point of attachment. Malonyl(2,2-Me2,histaminyl) = CC(C)(C(=O)NCCc1cnc[nH]1)C(=O)*; Ala(1H-tetrazol-5-yl) = N[C@@H](Cc1nnn[nH]1)C(=O)O; αMePhe(2-F) = C[C@](N)(Cc1ccccc1F)C(=O)O; αMeL = CC(C)C[C@](C)(N)C(=O)O; Nle = CCCC[C@H](N)C(=O)O; Aib = CC(C)(N)C(=O)O

Assays:
human GLP1 receptor = molecular target: T1, human GLP1 receptor (Homo sapiens, UniProt P43220); experiment: cAMP accumulation assay, functional agonism of human GLP1 receptor; format: cell-based; conditions: HEK cells infected with human GLP1 receptor BacMam virus, HTRF cAMP; for Emax: HEK293, read-out: Human GLP-1R agonist cAMP Emax; for EC50: read-out: Human GLP-1R agonist cAMP pEC50 (converted)
T1 construct: expressed in transfected cells; host or cells: HEK cells, BacMam virus transduction
T1 sequence (P43220 24-463): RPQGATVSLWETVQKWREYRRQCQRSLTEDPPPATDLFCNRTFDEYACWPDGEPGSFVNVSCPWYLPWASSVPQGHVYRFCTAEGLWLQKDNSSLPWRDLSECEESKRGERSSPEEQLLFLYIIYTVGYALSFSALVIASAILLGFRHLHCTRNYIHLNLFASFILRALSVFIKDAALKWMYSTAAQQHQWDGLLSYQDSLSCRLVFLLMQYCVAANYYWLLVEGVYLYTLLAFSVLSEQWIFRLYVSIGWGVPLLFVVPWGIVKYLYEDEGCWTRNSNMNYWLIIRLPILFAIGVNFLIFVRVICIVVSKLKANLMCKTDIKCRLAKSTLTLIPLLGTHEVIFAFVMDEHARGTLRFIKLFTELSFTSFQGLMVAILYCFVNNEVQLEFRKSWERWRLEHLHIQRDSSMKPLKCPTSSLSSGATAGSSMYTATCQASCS
Method: (§1) CAMP production upon agonist stimulation of human GLP2 or GLP1 receptor was assessed utilizing HiRange cAMP kit (Cisbio). In brief, HEK cells were infected with either human GLP2 or GLP1 receptor BacMam virus for 24 hours and frozen for later use in the assay. […] Cells were prepared in the assay buffer (HBSS (Lonza) supplemented with 0.5 mM IBMX (Tocris)). After 45 min incubation at 37° C., the reaction was stopped by addition of the HTRF detection reagents in the lysis buffer provided in the kit.

human GLP2 receptor = molecular target: T2, human GLP2 receptor (Homo sapiens, UniProt O95838); experiment: cAMP accumulation assay, functional agonism of human GLP2 receptor; format: cell-based; conditions: HEK cells infected with human GLP2 receptor BacMam virus, HTRF cAMP; for Emax: HEK293, read-out: Human GLP-2R agonist cAMP Emax; for EC50: read-out: Human GLP-2R agonist cAMP pEC50 (converted)
T2 construct: expressed in transfected cells; host or cells: HEK cells, BacMam virus transduction
T2 sequence (O95838 1-553): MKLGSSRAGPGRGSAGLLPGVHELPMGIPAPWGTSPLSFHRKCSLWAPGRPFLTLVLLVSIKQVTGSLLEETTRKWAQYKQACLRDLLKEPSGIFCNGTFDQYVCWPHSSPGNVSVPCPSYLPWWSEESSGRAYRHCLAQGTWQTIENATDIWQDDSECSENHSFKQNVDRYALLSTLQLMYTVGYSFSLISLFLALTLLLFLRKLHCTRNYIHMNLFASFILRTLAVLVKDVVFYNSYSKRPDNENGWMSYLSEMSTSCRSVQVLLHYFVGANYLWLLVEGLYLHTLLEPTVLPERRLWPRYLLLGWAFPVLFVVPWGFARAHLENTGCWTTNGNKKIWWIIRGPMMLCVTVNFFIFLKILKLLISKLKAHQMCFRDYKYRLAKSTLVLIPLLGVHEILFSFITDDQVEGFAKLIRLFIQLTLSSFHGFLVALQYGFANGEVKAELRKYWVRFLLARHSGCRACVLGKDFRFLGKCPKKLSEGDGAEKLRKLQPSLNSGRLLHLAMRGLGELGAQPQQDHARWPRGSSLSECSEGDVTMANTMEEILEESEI
Method: as §1

SMILES | Emax (human GLP1 receptor) [%] | EC50 (human GLP1 receptor) [nM] | Emax (human GLP2 receptor) [%] | EC50 (human GLP2 receptor) [nM]
CCCC[C@@H]1NC(=O)[C@H](CCC(=O)O)NC(=O)[C@@H](NC(=O)[C@H](CO)NC(=O)[C@](C)(Cc2ccccc2F)NC(=O)[C@H](CO)NC(=O)[C@@H](C)NC(=O)[C@H](CC(=O)O)NC(=O)C(C)(C)C(=O)NCCc2c[nH]cn2)CCCCNC(=O)C[C@@H](C(=O)N[C@@](C)(CC(C)C)C(=O)N[C@@H](CC(C)C)C(=O)N[C@@H](CC(=O)O)C(=O)N[C@H]2CCC(=O)NCCCC[C@@H](C(=O)N[C@@H](CC(=O)O)C(=O)N[C@@H](Cc3ccccc3)C(=O)N[C@H](C(=O)N[C@@H](CC(N)=O)C(=O)N[C@@H](Cc3c[nH]c4ccccc34)C(=O)N[C@@H](CC(C)C)C(=O)N[C@H](C(=O)N[C@@H](CCC(N)=O)C(=O)N[C@H]3CCC(=O)NCCCC[C@@H](C(N)=O)NC(=O)[C@H]([C@@H](C)O)NC(=O)[C@H]([C@@H](C)CC)NC(=O)[C@H](CCCCN)NC3=O)[C@@H](C)CC)[C@@H](C)CC)NC(=O)[C@H](C)NC(=O)[C@H](C)NC(=O)[C@H](CCCCN)NC2=O)NC(=O)[C@@H](Cc2ccccc2)NC1=O [Example 25] ({Malonyl(2,2-Me2,histaminyl)}-D[dA]S[αMePhe(2-F)]SKE[Nle][dF]D[αMeL]LDEKAAKDFINWLIQEKITK-NH2; lactam 6-10, 14-18, 27-31 (inferred); C-terminus assumed) | 97.6 | 0.0316 | 103 | 0.0251
CCCC[C@@H]1NC(=O)[C@H](CCC(=O)O)NC(=O)[C@@H](NC(=O)[C@H](CO)NC(=O)[C@H](Cc2ccccc2)NC(=O)[C@H](CO)NC(=O)CNC(=O)[C@H](Cc2nn[nH]n2)NC(=O)C(C)(C)C(=O)NCCc2c[nH]cn2)CCCCNC(=O)C[C@@H](C(=O)N[C@H](C(=O)N[C@@H](CC(C)C)C(=O)N[C@@H](CC(=O)O)C(=O)N[C@@H](CC(C)C)C(=O)N[C@@H](CCCCN)C(=O)N[C@@H](C)C(=O)N[C@@H](C)C(=O)N[C@@H](CCCCN)C(=O)N[C@@H](CC(=O)O)C(=O)N[C@@H](Cc2ccccc2)C(=O)N[C@H](C(=O)N[C@@H](CC(N)=O)C(=O)N[C@@H](Cc2c[nH]c3ccccc23)C(=O)N[C@@H](CC(C)C)C(=O)N[C@H](C(=O)N[C@@H](CCC(N)=O)C(=O)N[C@H](C(=O)N[C@@H](CCCCN)C(=O)N[C@H](C(=O)N[C@H](C(=O)N[C@@H](Cc2ccccc2)C(N)=O)[C@@H](C)O)[C@@H](C)CC)[C@@H](C)O)[C@@H](C)CC)[C@@H](C)CC)[C@@H](C)CC)NC(=O)[C@@H](Cc2ccccc2)NC1=O [Example 82] ({Malonyl(2,2-Me2,histaminyl)}-[Ala(1H-tetrazol-5-yl)]GSFSKE[Nle][dF]DILDLKAAKDFINWLIQTKITF-NH2; lactam 6-10 (inferred); C-terminus assumed) | 94.5 | 12.6 | 104 | 0.0794
CCCC[C@H](NC(=O)[C@H](CCC(=O)O)NC(=O)[C@@H]1CC(=O)NCCCC[C@H](NC(=O)[C@H](CCC(=O)O)NC(=O)C(C)(C)NC(=O)[C@@H](N)Cc2c[nH]cn2)C(=O)N[C@@H](CO)C(=O)N[C@@](C)(Cc2ccccc2F)C(=O)N[C@@H](CO)C(=O)N1)C(=O)N[C@H](Cc1ccccc1)C(=O)N[C@H](C(=O)N[C@@](C)(CC(C)C)C(=O)N[C@@H](CC(C)C)C(=O)N[C@@H](CC(=O)O)C(=O)N[C@H]1CCC(=O)NCCCC[C@@H](C(=O)N[C@@H](CC(=O)O)C(=O)N[C@@H](Cc2ccccc2)C(=O)N[C@H](C(=O)N[C@H]2CCC(=O)NCCCC[C@@H](C(=O)N[C@H](C(=O)N[C@@H](CCCCN)C(N)=O)[C@@H](C)O)NC(=O)[C@H]([C@@H](C)CC)NC(=O)[C@H](CC(C)C)NC(=O)[C@H](Cc3c[nH]c4ccccc34)NC2=O)[C@@H](C)CC)NC(=O)[C@H](C)NC(=O)[C@H](C)NC(=O)[C@H](CCCCN)NC1=O)[C@@H](C)O [Example 32] (H-H[Aib]EKS[αMePhe(2-F)]SDE[Nle][dF]T[αMeL]LDEKAAKDFIEWLIKTK-NH2; lactam 4-8, 16-20, 24-28 (inferred); C-terminus assumed) | 97.8 | 0.0251 | 91.3 | 0.794
CCCC[C@@H]1NC(=O)[C@H](CCC(=O)O)NC(=O)[C@H](CC(=O)O)NC(=O)[C@@H](NC(=O)[C@H](Cc2ccccc2)NC(=O)[C@H](CO)NC(=O)CNC(=O)[C@H](Cc2nn[nH]n2)NC(=O)C(C)(C)C(=O)NCCc2c[nH]cn2)CCC(=O)NCCCC[C@@H](C(=O)N[C@H]2CCC(=O)NCCCC[C@@H](C(=O)N[C@H]3CCC(=O)NCCCC[C@@H](C(=O)N[C@@H](CC(=O)O)C(=O)N[C@@H](Cc4ccccc4)C(=O)N[C@H](C(=O)N[C@H]4CCC(=O)NCCCC[C@@H](C(=O)N[C@H]5CCCCNC(=O)CC[C@@H](C(N)=O)NC(=O)[C@H]([C@@H](C)O)NC(=O)[C@H]([C@@H](C)CC)NC(=O)[C@H](CCCCN)NC5=O)NC(=O)[C@H]([C@@H](C)CC)NC(=O)[C@H](CC(C)C)NC(=O)[C@H](Cc5c[nH]c6ccccc56)NC4=O)[C@@H](C)CC)NC(=O)[C@H](C)NC(=O)[C@H](C)NC3=O)NC(=O)[C@H](CC(=O)O)NC(=O)[C@H](CC(C)C)NC(=O)[C@H]([C@@H](C)CC)NC2=O)NC1=O [Example 80] | 64.1 | 3.98 | 99.9 | 0.2
CCCC[C@H](NC(=O)[C@H](CCC(=O)O)NC(=O)[C@@H]1CC(=O)NCCCC[C@H](NC(=O)[C@H](CC(=O)O)NC(=O)C(C)(C)C(=O)NCCc2c[nH]cn2)C(=O)N[C@@H](CO)C(=O)N[C@@](C)(Cc2ccccc2F)C(=O)N[C@@H](CO)C(=O)N1)C(=O)N[C@H](Cc1ccccc1)C(=O)N[C@H](C(=O)N[C@@](C)(CC(C)C)C(=O)N[C@@H](CC(C)C)C(=O)N[C@@H](CC(=O)O)C(=O)N[C@H]1CCC(=O)NCCCC[C@@H](C(=O)N[C@@H](CC(=O)O)C(=O)N[C@@H](Cc2ccccc2)C(=O)N[C@H](C(=O)N[C@H]2CCC(=O)NCCCC[C@@H](C(=O)N[C@H](C(=O)N[C@@H](CCCCN)C(N)=O)[C@@H](C)O)NC(=O)[C@H]([C@@H](C)CC)NC(=O)[C@H](CC(C)C)NC(=O)[C@H](Cc3c[nH]c4ccccc34)NC2=O)[C@@H](C)CC)NC(=O)[C@H](C)NC(=O)[C@H](C)NC(=O)[C@H](CCCCN)NC1=O)[C@@H](C)O [Example 33] ({Malonyl(2,2-Me2,histaminyl)}-DKS[αMePhe(2-F)]SDE[Nle][dF]T[αMeL]LDEKAAKDFIEWLIKTK-NH2; lactam 2-6, 14-18, 22-26; C-terminus assumed) | 98.1 | 0.0251 | 102 | 0.0316
CCCC[C@H](NC(=O)[C@H](CCC(=O)O)NC(=O)[C@H](CC(=O)O)NC(=O)[C@H](CO)NC(=O)[C@H](Cc1ccccc1)NC(=O)[C@H](CO)NC(=O)CNC(=O)[C@H](CC(=O)O)NC(=O)C(C)(C)NC(=O)[C@@H](N)Cc1c[nH]cn1)C(=O)N[C@H](Cc1ccccc1)C(=O)N[C@H](C(=O)N[C@H](C(=O)N[C@@H](CC(C)C)C(=O)N[C@@H](CC(=O)O)C(=O)N[C@@H](CC(C)C)C(=O)N[C@@H](CCCCN)C(=O)N[C@@H](C)C(=O)N[C@@H](C)C(=O)N[C@@H](CCCCN)C(=O)N[C@@H](CC(=O)O)C(=O)N[C@@H](Cc1ccccc1)C(=O)N[C@H](C(=O)N[C@H]1CCCCNC(=O)C[C@@H](C(=O)N[C@H](C(=O)N[C@@H](CCCCN)C(=O)N[C@H](C(=O)N[C@H](C(=O)N[C@@H](CC(=O)O)C(N)=O)[C@@H](C)O)[C@@H](C)CC)[C@@H](C)O)NC(=O)[C@H]([C@@H](C)CC)NC(=O)[C@H](CC(C)C)NC(=O)[C@H](Cc2c[nH]c3ccccc23)NC1=O)[C@@H](C)CC)[C@@H](C)CC)[C@@H](C)O [Example 100] (H-H[Aib]DGSFSDE[Nle][dF]TILDLKAAKDFIKWLIDTKITD-NH2; lactam 24-28; N-terminus and C-terminus assumed) | 96 | 0.794 | 100 | 0.00501
